Assay results reported in ChEMBL document CHEMBL1144430, “Convergent synthesis and pharmacology of substituted tetrazolyl-2-amino-3-(3-hydroxy-5-methyl-4-isoxazolyl)propionic acid analogues” (J Med Chem, 2005).

Legend:
[1] = target: Glutamate NMDA receptor; assay: Displacement of [3H]-CGP- 39653 from N-methyl-D-aspartate glutamate receptor of rat brain synaptosomes; format: subcellular
[2] = target: Glutamate receptor ionotropic, AMPA (Rattus norvegicus, UniProt P19490+P19491+P19492+P19493); assay: Displacement of [3H]AMPA from Ionotropic glutamate receptor of in rat brain synaptosomes; format: subcellular
[3] = target: Glutamate receptor ionotropic, kainate; assay: Displacement of [3H]KA from glutamate receptor of rat brain synaptosomes; format: subcellular
[4] = target: Glutamate receptor ionotropic, kainate 2 (Homo sapiens, UniProt Q13002); assay: Binding affinity for kainate Glutamate receptor GluR6 expressed in Sf9 cells
[5] = target: Glutamate receptor ionotropic, kainate 1 (Homo sapiens, UniProt P39086); assay: Binding affinity for kainate Glutamate receptor GluR5 expressed in Sf9 cells
[6] = In vitro activity at Ionotropic glutamate receptor using cortical wedge assays
[7] = target: Glutamate receptor 3 (Homo sapiens, UniProt P42263); assay: Binding affinity for ionotropic Glutamate receptor AMPA 3 expressed in Sf9 cells
[8] = target: Glutamate receptor 2 (Homo sapiens, UniProt P42262); assay: Binding affinity for ionotropic Glutamate receptor AMPA 2 expressed in Sf9 cells
[9] = target: Glutamate receptor 1 (Homo sapiens, UniProt P42261); assay: Binding affinity for ionotropic Glutamate receptor AMPA 1 expressed in Sf9 cells
[10] = target: Glutamate receptor 4 (Homo sapiens, UniProt P48058); assay: Binding affinity for ionotropic Glutamate receptor AMPA 4 expressed in Sf9 cells

Sequence of Glutamate receptor 3 (P42263 whole entry): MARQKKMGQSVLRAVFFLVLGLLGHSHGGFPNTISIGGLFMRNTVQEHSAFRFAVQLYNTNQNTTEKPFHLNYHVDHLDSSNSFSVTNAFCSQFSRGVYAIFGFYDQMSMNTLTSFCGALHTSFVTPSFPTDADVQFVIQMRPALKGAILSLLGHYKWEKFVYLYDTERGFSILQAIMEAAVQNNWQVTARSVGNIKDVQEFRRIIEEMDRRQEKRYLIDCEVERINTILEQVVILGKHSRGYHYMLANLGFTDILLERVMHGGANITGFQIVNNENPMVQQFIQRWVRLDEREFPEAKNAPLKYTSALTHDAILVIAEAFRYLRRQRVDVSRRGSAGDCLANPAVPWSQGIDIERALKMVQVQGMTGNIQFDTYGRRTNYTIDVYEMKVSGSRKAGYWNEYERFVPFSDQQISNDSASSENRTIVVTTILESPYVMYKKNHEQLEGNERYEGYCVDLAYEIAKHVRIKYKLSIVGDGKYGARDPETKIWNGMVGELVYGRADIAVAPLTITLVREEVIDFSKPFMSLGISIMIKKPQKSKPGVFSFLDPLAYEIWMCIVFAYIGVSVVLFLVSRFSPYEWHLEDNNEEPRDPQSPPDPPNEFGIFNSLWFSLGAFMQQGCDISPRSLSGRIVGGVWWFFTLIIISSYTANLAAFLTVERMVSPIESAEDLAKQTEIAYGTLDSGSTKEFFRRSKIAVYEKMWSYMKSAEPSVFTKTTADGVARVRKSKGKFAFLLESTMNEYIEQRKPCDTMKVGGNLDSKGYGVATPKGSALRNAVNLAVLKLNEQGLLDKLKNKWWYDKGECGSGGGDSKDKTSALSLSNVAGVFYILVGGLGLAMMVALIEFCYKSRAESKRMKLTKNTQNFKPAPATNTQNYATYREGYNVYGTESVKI
Sequence of Glutamate receptor ionotropic, kainate 1 (P39086 whole entry): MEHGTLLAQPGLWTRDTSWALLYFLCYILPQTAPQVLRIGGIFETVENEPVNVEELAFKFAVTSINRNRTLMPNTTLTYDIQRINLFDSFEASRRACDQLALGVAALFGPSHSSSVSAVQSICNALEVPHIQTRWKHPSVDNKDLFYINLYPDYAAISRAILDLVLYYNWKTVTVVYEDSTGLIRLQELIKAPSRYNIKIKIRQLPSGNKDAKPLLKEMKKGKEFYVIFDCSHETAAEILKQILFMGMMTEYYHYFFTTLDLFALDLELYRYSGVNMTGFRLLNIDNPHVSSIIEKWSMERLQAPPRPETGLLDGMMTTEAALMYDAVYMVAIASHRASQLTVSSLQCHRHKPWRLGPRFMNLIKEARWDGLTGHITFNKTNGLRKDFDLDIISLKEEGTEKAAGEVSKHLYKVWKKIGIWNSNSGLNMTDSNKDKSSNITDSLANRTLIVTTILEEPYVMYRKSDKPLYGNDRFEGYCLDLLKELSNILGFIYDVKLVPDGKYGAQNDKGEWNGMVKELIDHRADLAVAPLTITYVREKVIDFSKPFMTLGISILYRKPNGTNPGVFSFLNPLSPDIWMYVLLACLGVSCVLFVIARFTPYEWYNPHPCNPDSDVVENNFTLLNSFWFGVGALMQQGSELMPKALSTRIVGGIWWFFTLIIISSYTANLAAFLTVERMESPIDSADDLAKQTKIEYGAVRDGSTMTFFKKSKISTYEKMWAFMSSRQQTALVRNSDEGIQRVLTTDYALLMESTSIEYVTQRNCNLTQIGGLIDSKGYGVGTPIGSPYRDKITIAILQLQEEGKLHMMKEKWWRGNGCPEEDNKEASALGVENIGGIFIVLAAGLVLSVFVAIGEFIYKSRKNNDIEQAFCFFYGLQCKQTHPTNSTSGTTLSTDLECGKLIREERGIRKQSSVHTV
Sequence of Glutamate receptor 1 (P42261 whole entry): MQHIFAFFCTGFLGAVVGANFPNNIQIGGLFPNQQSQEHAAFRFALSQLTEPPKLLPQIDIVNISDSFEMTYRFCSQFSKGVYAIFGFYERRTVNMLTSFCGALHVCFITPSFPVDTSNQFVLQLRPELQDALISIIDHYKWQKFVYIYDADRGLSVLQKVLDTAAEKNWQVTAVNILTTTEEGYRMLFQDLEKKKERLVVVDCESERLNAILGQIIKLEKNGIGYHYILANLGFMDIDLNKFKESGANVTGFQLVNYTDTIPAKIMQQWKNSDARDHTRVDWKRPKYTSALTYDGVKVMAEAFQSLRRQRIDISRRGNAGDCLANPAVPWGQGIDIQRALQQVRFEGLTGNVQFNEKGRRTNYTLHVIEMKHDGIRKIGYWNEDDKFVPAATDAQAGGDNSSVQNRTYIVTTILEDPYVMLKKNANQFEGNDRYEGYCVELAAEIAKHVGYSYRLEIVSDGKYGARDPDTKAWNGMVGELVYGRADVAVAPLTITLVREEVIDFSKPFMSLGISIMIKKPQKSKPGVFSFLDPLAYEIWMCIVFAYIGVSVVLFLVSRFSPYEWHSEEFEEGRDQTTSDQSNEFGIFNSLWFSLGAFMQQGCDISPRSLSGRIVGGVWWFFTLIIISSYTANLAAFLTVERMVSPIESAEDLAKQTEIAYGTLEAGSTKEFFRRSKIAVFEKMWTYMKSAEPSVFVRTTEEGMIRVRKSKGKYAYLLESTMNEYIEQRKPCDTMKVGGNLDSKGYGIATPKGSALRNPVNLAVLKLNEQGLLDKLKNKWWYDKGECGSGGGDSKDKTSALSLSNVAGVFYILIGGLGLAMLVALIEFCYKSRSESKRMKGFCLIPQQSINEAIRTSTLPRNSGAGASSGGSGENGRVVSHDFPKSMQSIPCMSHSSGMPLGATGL
Sequence of Glutamate receptor 2 (P42262 whole entry): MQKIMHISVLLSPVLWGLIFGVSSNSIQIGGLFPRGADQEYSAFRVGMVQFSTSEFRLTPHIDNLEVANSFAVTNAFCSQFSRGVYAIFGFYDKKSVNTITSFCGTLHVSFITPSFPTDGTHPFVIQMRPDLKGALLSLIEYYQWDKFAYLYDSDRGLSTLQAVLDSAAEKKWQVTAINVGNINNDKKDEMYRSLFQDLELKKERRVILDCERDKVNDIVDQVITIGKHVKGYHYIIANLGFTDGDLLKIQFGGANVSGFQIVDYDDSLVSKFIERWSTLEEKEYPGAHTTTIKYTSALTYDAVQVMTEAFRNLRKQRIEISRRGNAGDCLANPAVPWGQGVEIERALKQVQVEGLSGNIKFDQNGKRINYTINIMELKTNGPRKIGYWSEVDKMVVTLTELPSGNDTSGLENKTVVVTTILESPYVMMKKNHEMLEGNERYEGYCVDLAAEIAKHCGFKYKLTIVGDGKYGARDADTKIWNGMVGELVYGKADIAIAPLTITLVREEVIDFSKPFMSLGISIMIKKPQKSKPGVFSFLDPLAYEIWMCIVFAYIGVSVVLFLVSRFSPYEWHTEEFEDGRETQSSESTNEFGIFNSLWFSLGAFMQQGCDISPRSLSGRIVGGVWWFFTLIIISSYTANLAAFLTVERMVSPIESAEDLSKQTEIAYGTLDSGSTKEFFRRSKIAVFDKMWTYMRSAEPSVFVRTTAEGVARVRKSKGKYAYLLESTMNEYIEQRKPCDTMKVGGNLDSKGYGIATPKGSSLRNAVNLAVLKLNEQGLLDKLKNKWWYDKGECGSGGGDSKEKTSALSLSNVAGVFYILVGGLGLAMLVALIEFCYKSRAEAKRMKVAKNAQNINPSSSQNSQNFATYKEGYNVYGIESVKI
Sequence of Glutamate receptor ionotropic, kainate 2 (Q13002 whole entry): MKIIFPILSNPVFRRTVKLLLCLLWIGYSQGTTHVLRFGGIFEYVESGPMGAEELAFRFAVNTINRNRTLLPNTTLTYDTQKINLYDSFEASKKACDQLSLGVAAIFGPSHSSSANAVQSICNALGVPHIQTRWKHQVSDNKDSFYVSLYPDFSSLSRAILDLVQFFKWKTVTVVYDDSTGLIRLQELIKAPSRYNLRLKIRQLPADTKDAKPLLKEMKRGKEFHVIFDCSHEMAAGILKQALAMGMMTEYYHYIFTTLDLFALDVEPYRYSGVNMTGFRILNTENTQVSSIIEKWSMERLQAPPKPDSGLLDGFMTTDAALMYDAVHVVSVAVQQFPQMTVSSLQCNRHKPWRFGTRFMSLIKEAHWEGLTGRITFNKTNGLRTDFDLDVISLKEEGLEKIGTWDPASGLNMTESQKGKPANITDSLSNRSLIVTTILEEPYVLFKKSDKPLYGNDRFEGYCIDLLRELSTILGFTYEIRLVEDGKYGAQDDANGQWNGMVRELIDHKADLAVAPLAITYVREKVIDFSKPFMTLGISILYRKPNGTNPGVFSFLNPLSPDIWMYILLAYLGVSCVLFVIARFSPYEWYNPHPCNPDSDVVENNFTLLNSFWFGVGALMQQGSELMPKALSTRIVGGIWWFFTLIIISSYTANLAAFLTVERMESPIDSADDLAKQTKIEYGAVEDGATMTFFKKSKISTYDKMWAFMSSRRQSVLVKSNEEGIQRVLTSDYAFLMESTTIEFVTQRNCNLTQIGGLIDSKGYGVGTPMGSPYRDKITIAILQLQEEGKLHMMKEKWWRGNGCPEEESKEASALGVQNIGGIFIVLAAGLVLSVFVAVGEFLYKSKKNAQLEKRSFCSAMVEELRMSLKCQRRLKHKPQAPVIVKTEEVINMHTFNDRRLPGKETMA

Row | Structure (SMILES) | Ki [1] [µM] | IC50 [2] [µM] | IC50 [3] [µM] | Ki [4] [µM] | Ki [5] [µM] | EC50 [6] [µM] | Ki [7] [nM] | Ki [8] [nM] | Ki [9] [µM] | Ki [10] [nM]
1 | Cn1nnc(-c2onc(O)c2CC(N)C(=O)O)n1 (racemic) | > 100 | 0.027 |  |  |  |  |  |  |  | 
2 | CCn1nnnc1-c1onc(O)c1CC(N)C(=O)O (centres undefined) | > 100 | 27 | > 100 |  |  |  |  |  |  | 
3 | CCCn1nnnc1-c1onc(O)c1CC(N)C(=O)O (centres undefined) | > 100 | > 100 | > 100 |  |  |  |  |  |  | 
4 | CCn1nnc(-c2o[nH]c(=O)c2CC(N)C(=O)O)n1 (centres undefined) | > 100 | 0.134 | > 100 | > 100 | 2.92 | 3.5 | 44.8 | 80.2 | 0.145 | 44.4
5 | Cn1nnc(-c2o[nH]c(=O)c2C[C@H](N)C(=O)O)n1 | > 1000 | 0.009 |  | 18.8 | 0.081 |  |  |  |  | 
6 | CC(C)n1nnc(-c2onc(O)c2CC(N)C(=O)O)n1 (centres undefined) | > 100 | 6.2 | > 100 | > 100 | 34.2 | 71 | 3710 | 2930 | 10 | 2350
7 | Cn1nnnc1-c1onc(O)c1CC(N)C(=O)O (centres undefined) | > 100 | 54 | > 100 |  |  | > 1000 |  |  |  | 
8 | CC(C)n1nnnc1-c1onc(O)c1CC(N)C(=O)O (centres undefined) | > 100 | > 100 | > 100 |  |  |  |  |  |  | 
9 | CCCn1nnc(-c2onc(O)c2CC(N)C(=O)O)n1 (centres undefined) | > 100 | 2.5 | > 100 | > 100 | 5.45 | 32 | 1180 | 1610 | 5.15 | 732
